{
  "source": "patent US7880007B2",
  "about": "“Bicyclic substituted phenyl piperidine modulators of muscarinic receptors” (Vertex Pharmaceuticals Incorporated, priority 2004, dated 2011)",
  "type_in_all_cases": "cell-based",
  "key": {"M4 muscarinic receptor": {"target": "T1, M4 muscarinic receptor (Homo sapiens, UniProt P08173)", "T1 construct": "expressed in transfected cells; host or cells: CHO (M4-CHO)", "T1 sequence (P08173 1-479)": "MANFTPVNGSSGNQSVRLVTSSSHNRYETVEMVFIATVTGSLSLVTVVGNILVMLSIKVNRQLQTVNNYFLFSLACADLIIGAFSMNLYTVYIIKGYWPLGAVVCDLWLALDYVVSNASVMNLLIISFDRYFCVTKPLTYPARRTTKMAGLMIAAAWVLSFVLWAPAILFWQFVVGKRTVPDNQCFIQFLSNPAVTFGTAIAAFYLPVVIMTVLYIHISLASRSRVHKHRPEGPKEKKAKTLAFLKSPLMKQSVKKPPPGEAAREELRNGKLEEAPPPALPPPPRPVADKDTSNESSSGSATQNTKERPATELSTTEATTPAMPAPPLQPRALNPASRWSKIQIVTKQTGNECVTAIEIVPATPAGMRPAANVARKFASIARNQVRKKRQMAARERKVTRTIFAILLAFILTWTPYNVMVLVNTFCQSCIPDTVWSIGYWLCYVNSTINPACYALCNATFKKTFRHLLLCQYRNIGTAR", "test": "Functional mobilization of intracellular calcium (FLIPR), M4-CHO cells", "conditions": "for Emax: 100% efficacy = maximum response obtained with the Carbachol control; for M4 Activity: M4-CHO cells, calcium mobilization (FLIPR)", "outline": "(§1)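 FLIPR fluorescence (ex 488, em 540 nm) recorded 60 sec after compound addition to dye-loaded CHO cells. Agonist mode: compound alone. Antagonist mode: 15 min compound pre-incubation, then carbachol at EC80, or co-application. Efficacy expressed as % of maximal carbachol response.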"}, "M3 muscarinic receptor": {"target": "T2, M3 muscarinic receptor (Homo sapiens, UniProt P20309)", "T2 construct": "expressed in transfected cells; host or cells: CHO (M3-CHO)", "T2 sequence (P20309 whole entry)": "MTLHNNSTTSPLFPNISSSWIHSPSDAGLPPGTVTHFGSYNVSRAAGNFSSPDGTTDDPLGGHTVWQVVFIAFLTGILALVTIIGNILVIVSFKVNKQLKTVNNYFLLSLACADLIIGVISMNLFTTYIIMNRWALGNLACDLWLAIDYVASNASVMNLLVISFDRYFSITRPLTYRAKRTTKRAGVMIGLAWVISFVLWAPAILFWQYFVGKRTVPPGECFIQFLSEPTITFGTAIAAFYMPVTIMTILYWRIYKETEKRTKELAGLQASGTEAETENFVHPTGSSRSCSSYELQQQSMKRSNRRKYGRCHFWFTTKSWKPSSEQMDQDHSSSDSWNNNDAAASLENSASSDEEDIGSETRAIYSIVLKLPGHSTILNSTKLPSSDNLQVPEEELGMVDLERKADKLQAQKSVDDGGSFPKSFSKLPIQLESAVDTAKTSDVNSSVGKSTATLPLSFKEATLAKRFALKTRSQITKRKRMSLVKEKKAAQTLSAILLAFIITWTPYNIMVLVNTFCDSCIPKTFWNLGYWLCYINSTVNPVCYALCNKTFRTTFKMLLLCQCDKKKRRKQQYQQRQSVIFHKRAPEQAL", "test": "Functional mobilization of intracellular calcium (FLIPR), M3-CHO cells", "conditions": "for Emax: 100% efficacy = maximum response obtained with the Carbachol control; for M3 Activity: M3-CHO cells, calcium mobilization (FLIPR)", "outline": "as §1"}, "M1 muscarinic receptor": {"target": "T3, M1 muscarinic receptor (Homo sapiens, UniProt P11229)", "T3 construct": "expressed in transfected cells; host or cells: CHO (M1-CHO)", "T3 sequence (P11229 1-460)": "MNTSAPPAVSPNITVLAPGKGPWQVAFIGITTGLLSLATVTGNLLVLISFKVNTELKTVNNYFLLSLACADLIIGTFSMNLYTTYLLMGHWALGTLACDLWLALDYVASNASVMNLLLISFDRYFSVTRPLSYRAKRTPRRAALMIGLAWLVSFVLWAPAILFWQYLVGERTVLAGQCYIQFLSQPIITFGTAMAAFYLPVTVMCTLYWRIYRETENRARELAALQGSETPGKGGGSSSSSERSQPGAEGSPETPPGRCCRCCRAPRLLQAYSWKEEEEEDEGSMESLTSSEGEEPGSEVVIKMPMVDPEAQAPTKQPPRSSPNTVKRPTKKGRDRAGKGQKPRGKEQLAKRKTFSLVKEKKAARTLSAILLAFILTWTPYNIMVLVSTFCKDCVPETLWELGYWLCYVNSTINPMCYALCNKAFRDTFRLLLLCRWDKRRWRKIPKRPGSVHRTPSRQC", "test": "Functional mobilization of intracellular calcium (FLIPR), M1-CHO cells", "conditions": "for Emax: 100% efficacy = maximum response obtained with the Carbachol control; for M1 Activity: M1-CHO cells, calcium mobilization (FLIPR)", "outline": "as §1"}, "M2 muscarinic receptor": {"target": "T4, M2 muscarinic receptor (Homo sapiens, UniProt P08172)", "T4 construct": "expressed in transfected cells; host or cells: CHO (M2-CHO)", "T4 sequence (P08172 1-466)": "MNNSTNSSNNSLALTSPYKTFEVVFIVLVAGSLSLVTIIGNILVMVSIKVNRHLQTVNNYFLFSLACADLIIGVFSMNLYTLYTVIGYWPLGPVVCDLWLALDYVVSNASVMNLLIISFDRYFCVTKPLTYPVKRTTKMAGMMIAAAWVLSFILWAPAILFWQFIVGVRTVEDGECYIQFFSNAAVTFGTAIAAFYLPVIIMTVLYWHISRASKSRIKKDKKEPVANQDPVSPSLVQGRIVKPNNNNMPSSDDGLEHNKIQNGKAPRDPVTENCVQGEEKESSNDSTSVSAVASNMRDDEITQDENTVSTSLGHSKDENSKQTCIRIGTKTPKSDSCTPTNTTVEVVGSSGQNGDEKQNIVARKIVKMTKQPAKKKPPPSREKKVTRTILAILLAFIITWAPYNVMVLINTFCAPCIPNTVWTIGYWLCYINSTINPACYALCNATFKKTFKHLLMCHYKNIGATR", "test": "Functional mobilization of intracellular calcium (FLIPR), M2-CHO cells", "conditions": "for Emax: 100% efficacy = maximum response obtained with the Carbachol control; for M2 Activity: M2-CHO cells, calcium mobilization (FLIPR)", "outline": "as §1"}},
  "data": [
    {"smiles": "CCOC(=O)N1CCC(N2C3CCC2CC(c2ccccc2OC)C3)CC1", "note": "(centres unmarked) [Compound 289, ethyl 4-(3-(2-methoxyphenyl)-8-azabicyclo-[3.2.1]octan-8-yl)piperidine-1-carboxylate]", "values": [
      {"measurement": "Emax", "setting": "M4 muscarinic receptor", "result": "25 to 100", "unit": "%"},
      {"measurement": "M4 Activity", "setting": "M4 muscarinic receptor", "result": "++ (activity was measured to be from 1.0 μM to 5.0 μM)"},
      {"measurement": "Emax", "setting": "M3 muscarinic receptor", "result": "< 25", "unit": "%"},
      {"measurement": "M3 Activity", "setting": "M3 muscarinic receptor", "result": "+ (activity was measured to be greater than 5.0 μM)"},
      {"measurement": "Emax", "setting": "M1 muscarinic receptor", "result": "< 25", "unit": "%"},
      {"measurement": "M1 Activity", "setting": "M1 muscarinic receptor", "result": "+ (activity was measured to be greater than 5.0 μM)"},
      {"measurement": "Emax", "setting": "M2 muscarinic receptor", "result": "< 25", "unit": "%"},
      {"measurement": "M2 Activity", "setting": "M2 muscarinic receptor", "result": "+ (activity was measured to be greater than 5.0 μM)"}
    ]},
    {"smiles": "Cc1ccc(F)c(C2CCN(C3C[C@H]4CC[C@H]3C4)CC2)c1", "note": "(some centres unmarked) [Compound 290]", "values": [
      {"measurement": "Emax", "setting": "M4 muscarinic receptor", "result": "25 to 100", "unit": "%"},
      {"measurement": "M4 Activity", "setting": "M4 muscarinic receptor", "result": "++ (activity was measured to be from 1.0 μM to 5.0 μM)"},
      {"measurement": "Emax", "setting": "M3 muscarinic receptor", "result": "< 25", "unit": "%"},
      {"measurement": "M3 Activity", "setting": "M3 muscarinic receptor", "result": "+ (activity was measured to be greater than 5.0 μM)"},
      {"measurement": "Emax", "setting": "M1 muscarinic receptor", "result": "25 to 100", "unit": "%"},
      {"measurement": "M1 Activity", "setting": "M1 muscarinic receptor", "result": "++ (activity was measured to be from 1.0 μM to 5.0 μM)"},
      {"measurement": "Emax", "setting": "M2 muscarinic receptor", "result": "25 to 100", "unit": "%"},
      {"measurement": "M2 Activity", "setting": "M2 muscarinic receptor", "result": "+ (activity was measured to be greater than 5.0 μM)"}
    ]},
    {"smiles": "COc1ccccc1C1CCN(CC2=CC[C@@H]3C[C@@H]2C3(C)C)CC1", "note": "[Compound 291]", "values": [
      {"measurement": "Emax", "setting": "M4 muscarinic receptor", "result": "< 25", "unit": "%"},
      {"measurement": "M4 Activity", "setting": "M4 muscarinic receptor", "result": "+ (activity was measured to be greater than 5.0 μM)"},
      {"measurement": "Emax", "setting": "M3 muscarinic receptor", "result": "< 25", "unit": "%"},
      {"measurement": "M3 Activity", "setting": "M3 muscarinic receptor", "result": "+ (activity was measured to be greater than 5.0 μM)"},
      {"measurement": "Emax", "setting": "M1 muscarinic receptor", "result": "< 25", "unit": "%"},
      {"measurement": "M1 Activity", "setting": "M1 muscarinic receptor", "result": "+ (activity was measured to be greater than 5.0 μM)"},
      {"measurement": "Emax", "setting": "M2 muscarinic receptor", "result": "< 25", "unit": "%"},
      {"measurement": "M2 Activity", "setting": "M2 muscarinic receptor", "result": "+ (activity was measured to be greater than 5.0 μM)"}
    ]},
    {"smiles": "COc1ccc(F)cc1C1(OC)CCN(C[C@H]2C[C@H]3C=C[C@H]2C3)CC1", "note": "[Compound 292]", "values": [
      {"measurement": "Emax", "setting": "M4 muscarinic receptor", "result": "25 to 100", "unit": "%"},
      {"measurement": "M4 Activity", "setting": "M4 muscarinic receptor", "result": "+++ (activity was measured to be less than 1.0 μM)"},
      {"measurement": "Emax", "setting": "M3 muscarinic receptor", "result": "< 25", "unit": "%"},
      {"measurement": "M3 Activity", "setting": "M3 muscarinic receptor", "result": "+ (activity was measured to be greater than 5.0 μM)"},
      {"measurement": "Emax", "setting": "M1 muscarinic receptor", "result": "25 to 100", "unit": "%"},
      {"measurement": "M1 Activity", "setting": "M1 muscarinic receptor", "result": "++ (activity was measured to be from 1.0 μM to 5.0 μM)"},
      {"measurement": "Emax", "setting": "M2 muscarinic receptor", "result": "25 to 100", "unit": "%"},
      {"measurement": "M2 Activity", "setting": "M2 muscarinic receptor", "result": "++ (activity was measured to be from 1.0 μM to 5.0 μM)"}
    ]},
    {"smiles": "Fc1ccc(-c2ccccc2C2CCN([C@H]3C[C@H]4CC[C@H]3C4)CC2)cc1", "note": "[Compound 294]", "values": [
      {"measurement": "Emax", "setting": "M4 muscarinic receptor", "result": "25 to 100", "unit": "%"},
      {"measurement": "M4 Activity", "setting": "M4 muscarinic receptor", "result": "++ (activity was measured to be from 1.0 μM to 5.0 μM)"},
      {"measurement": "Emax", "setting": "M3 muscarinic receptor", "result": "< 25", "unit": "%"},
      {"measurement": "M3 Activity", "setting": "M3 muscarinic receptor", "result": "+ (activity was measured to be greater than 5.0 μM)"},
      {"measurement": "Emax", "setting": "M1 muscarinic receptor", "result": "< 25", "unit": "%"},
      {"measurement": "M1 Activity", "setting": "M1 muscarinic receptor", "result": "+ (activity was measured to be greater than 5.0 μM)"},
      {"measurement": "Emax", "setting": "M2 muscarinic receptor", "result": "< 25", "unit": "%"},
      {"measurement": "M2 Activity", "setting": "M2 muscarinic receptor", "result": "+ (activity was measured to be greater than 5.0 μM)"}
    ]},
    {"smiles": "CCOC(=O)N1CCC(CN2CCC(OC)(c3cc(F)ccc3OC)CC2)CC1", "note": "[Compound 295]", "values": [
      {"measurement": "Emax", "setting": "M4 muscarinic receptor", "result": "25 to 100", "unit": "%"},
      {"measurement": "M4 Activity", "setting": "M4 muscarinic receptor", "result": "+++ (activity was measured to be less than 1.0 μM)"},
      {"measurement": "Emax", "setting": "M3 muscarinic receptor", "result": "< 25", "unit": "%"},
      {"measurement": "M3 Activity", "setting": "M3 muscarinic receptor", "result": "+ (activity was measured to be greater than 5.0 μM)"},
      {"measurement": "Emax", "setting": "M1 muscarinic receptor", "result": "25 to 100", "unit": "%"},
      {"measurement": "M1 Activity", "setting": "M1 muscarinic receptor", "result": "+++ (activity was measured to be less than 1.0 μM)"},
      {"measurement": "Emax", "setting": "M2 muscarinic receptor", "result": "25 to 100", "unit": "%"},
      {"measurement": "M2 Activity", "setting": "M2 muscarinic receptor", "result": "++ (activity was measured to be from 1.0 μM to 5.0 μM)"}
    ]},
    {"smiles": "COc1ccc(C(F)(F)F)cc1C1CCN(C2C[C@H]3CC[C@H]2C3)CC1", "note": "(some centres unmarked) [Compound 296]", "values": [
      {"measurement": "Emax", "setting": "M4 muscarinic receptor", "result": "25 to 100", "unit": "%"},
      {"measurement": "M4 Activity", "setting": "M4 muscarinic receptor", "result": "++ (activity was measured to be from 1.0 μM to 5.0 μM)"},
      {"measurement": "Emax", "setting": "M3 muscarinic receptor", "result": "< 25", "unit": "%"},
      {"measurement": "M3 Activity", "setting": "M3 muscarinic receptor", "result": "+ (activity was measured to be greater than 5.0 μM)"},
      {"measurement": "Emax", "setting": "M1 muscarinic receptor", "result": "25 to 100", "unit": "%"},
      {"measurement": "M1 Activity", "setting": "M1 muscarinic receptor", "result": "++ (activity was measured to be from 1.0 μM to 5.0 μM)"},
      {"measurement": "Emax", "setting": "M2 muscarinic receptor", "result": "< 25", "unit": "%"},
      {"measurement": "M2 Activity", "setting": "M2 muscarinic receptor", "result": "+ (activity was measured to be greater than 5.0 μM)"}
    ]}
  ]
}
